Test systems include A549; ACHN; CAKI-1; DU-145; HL-60; HOP-62; KM12; MDA-MB-231; Malme-3M; NCI-H226; NCI/ADR-RES; PC-3; RXF 393; SF-295; SK-MEL-28; SK-MEL-5; SR; TK-10; U-251; LOX IMVI.
Common to all, as to test: NCI tumour cell line growth inhibition, 48 h

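Dose response: 5 concentrations. Exposure: 48 h. Format: 96-well plates. Endpoint: linear interpolation; highest concentration if not reached. Abbreviation: GI50, concentration required for 50% inhibition of growth.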 Activity calls are given as the source filed them. Cut-off read from the data, not from the text of the source: active = GI50 up to about 1.1 µM and inactive = higher.

For `O=[N+]([O-])c1ccc(/C=C(/c2ccc([N+](=O)[O-])o2)S(=O)(=O)c2ccccc2)o1`, the GI50 was 18.7 µM (inactive) in the assay on A549; 2.84 µM (inactive) with ACHN; 18.5 µM (inactive) with CAKI-1; 14.8 µM (inactive) in the assay on DU-145; 2.75 µM (inactive) with HL-60; 17.8 µM (inactive) in the assay with HOP-62. The GI50 in the assay on KM12 was 17.7 µM (inactive); in the assay on MDA-MB-231, 3.19 µM (inactive); with Malme-3M, 2.45 µM (inactive); in the assay on NCI-H226, 1.42 µM (inactive); in the assay with NCI/ADR-RES it was 18 µM (inactive); in the assay on PC-3 it was 16.4 µM (inactive). The GI50 in the assay with RXF 393 is 25.1 µM (inactive); with SF-295, 18.6 µM (inactive); in the assay on SK-MEL-28 it was 15.6 µM (inactive); in the assay on SK-MEL-5, 11.9 µM (inactive); with SR, 1.02 µM (active); in the assay on TK-10 it was 4.1 µM (inactive). Also, in the assay on U-251, the GI50 was 15.9 µM (inactive).
With `CNC1C(O)C(OC2C(N)CC(N)C(OC3OC(C(C)O)C(O)C(O)C3N)C2O)OCC1(C)O` (centres undefined), the GI50 with A549, in the assay on ACHN, in the assay on CAKI-1, in the assay on DU-145, in the assay with HL-60 and with HOP-62 was > 100 µM (inactive) throughout. In addition, the GI50 in the assay with KM12 is > 100 µM (inactive); with LOX IMVI, > 100 µM (inactive); in the assay with MDA-MB-231 it was > 100 µM (inactive); in the assay with Malme-3M, > 10 µM (inactive); with NCI-H226 it was > 100 µM (inactive); in the assay on NCI/ADR-RES, > 100 µM (inactive). The GI50 in the assay with PC-3, in the assay on SF-295, in the assay with SK-MEL-28, in the assay with SK-MEL-5, with SR and with TK-10 was > 100 µM (inactive) each time. Besides, in the assay on U-251, the GI50 was > 100 µM (inactive).
As for `NNC(=O)CSc1nc2ccccc2c(=O)n1N`, the GI50 in the assay with A549 is > 100 µM (inactive); in the assay with ACHN, 26.4 µM (inactive); in the assay on CAKI-1, 32.8 µM (inactive); in the assay with DU-145 it was > 100 µM (inactive); with KM12, > 100 µM (inactive); with LOX IMVI it was 43.4 µM (inactive). The GI50 in the assay on MDA-MB-231 was 17.3 µM (inactive); in the assay on Malme-3M it was 46.7 µM (inactive); with NCI-H226, > 100 µM (inactive); with NCI/ADR-RES it was > 100 µM (inactive); in the assay with PC-3, > 100 µM (inactive); in the assay on RXF 393, 31.7 µM (inactive). For the same molecule, the GI50 with SF-295 was 31.4 µM (inactive); in the assay on SK-MEL-28, > 100 µM (inactive); with SK-MEL-5, > 100 µM (inactive); in the assay with SR it was > 100 µM (inactive); in the assay on TK-10 it was 16.3 µM (inactive); in the assay on U-251, 19.1 µM (inactive).
Consider `Cc1cc2c(O)c(c1)CN(CC(=O)O)Cc1cc(C)cc(c1O)CN(CC(=O)O)Cc1cc(C)cc(c1O)CN(CC(=O)O)C2`, for which the GI50 in the assay with A549, with ACHN, in the assay with CAKI-1, in the assay on DU-145, in the assay on HOP-62 and with KM12 was > 100 µM (inactive) in each case. The GI50 with LOX IMVI, with MDA-MB-231, in the assay with Malme-3M, in the assay on NCI-H226, with NCI/ADR-RES and in the assay with PC-3 was > 100 µM (inactive) in each case. For the same molecule, the GI50 in the assay on RXF 393, in the assay on SF-295, in the assay with SK-MEL-28, in the assay with SK-MEL-5, with SR and with TK-10 was > 100 µM (inactive) in each case. The GI50 in the assay with U-251 was > 100 µM (inactive).
As for `CC(=O)C(=C(c1ccccc1)c1ccccc1)c1ccccc1`, the GI50 in the assay with A549 was > 100 µM (inactive); in the assay on ACHN, > 100 µM (inactive); with DU-145 it was > 100 µM (inactive); with HL-60 it was 20.5 µM (inactive); in the assay with HOP-62, > 100 µM (inactive); with KM12, > 100 µM (inactive). Moreover, the GI50 with LOX IMVI is > 100 µM (inactive); with MDA-MB-231 it was > 100 µM (inactive); with Malme-3M it was > 100 µM (inactive); with NCI-H226 it was > 100 µM (inactive); with NCI/ADR-RES it was > 100 µM (inactive); with PC-3, 45.2 µM (inactive). The GI50 in the assay on RXF 393 was > 100 µM (inactive); in the assay on SF-295, > 100 µM (inactive); in the assay with SK-MEL-28, > 100 µM (inactive); in the assay with SK-MEL-5, > 100 µM (inactive); in the assay with SR it was 31.8 µM (inactive); in the assay with TK-10, > 100 µM (inactive). Moreover, in the assay on U-251, the GI50 is > 100 µM (inactive).
Turning to `COC(=O)C([C@H]1CC[C@H](OCc2ccccc2)[C@@]1(O)COCc1ccccc1)C(C)(O)CCc1ccccc1` (some centres undefined), the GI50 is 6.71 µM (inactive) in the assay on A549; 12.5 µM (inactive) in the assay with ACHN; 57.9 µM (inactive) in the assay on CAKI-1; 24.2 µM (inactive) with DU-145; 15.2 µM (inactive) with HOP-62; 3.32 µM (inactive) in the assay on KM12. Besides, the GI50 in the assay on LOX IMVI was 8.47 µM (inactive); in the assay on MDA-MB-231, 12 µM (inactive); with Malme-3M it was 11.5 µM (inactive); in the assay on NCI-H226, 11.8 µM (inactive); with NCI/ADR-RES it was 4.06 µM (inactive); in the assay with PC-3 it was 4.13 µM (inactive). Besides, the GI50 was 10.4 µM (inactive) with RXF 393; 8.41 µM (inactive) in the assay on SF-295; 15.3 µM (inactive) in the assay on SK-MEL-28; 14.1 µM (inactive) with SK-MEL-5; 5.43 µM (inactive) in the assay on SR; 17.1 µM (inactive) in the assay on TK-10. Besides, the GI50 with U-251 was 11.6 µM (inactive).
Regarding `O=C1CNc2cc(N3CCN(c4cccc(C(F)(F)F)c4)CC3)ccc2N1`, the GI50 with A549 was 24.7 µM (inactive); in the assay with ACHN, 50.6 µM (inactive); in the assay with CAKI-1 it was > 100 µM (inactive); in the assay on DU-145, > 100 µM (inactive); in the assay on HL-60, 19.9 µM (inactive); with HOP-62 it was > 100 µM (inactive). Also, the GI50 was 32.9 µM (inactive) with KM12; 38.4 µM (inactive) with LOX IMVI; > 100 µM (inactive) in the assay on MDA-MB-231; 14.2 µM (inactive) in the assay on Malme-3M; 19.6 µM (inactive) with NCI-H226; 34.6 µM (inactive) with NCI/ADR-RES. For the same molecule, the GI50 in the assay with PC-3 was 44.4 µM (inactive); in the assay on SF-295, 24.3 µM (inactive); in the assay on SK-MEL-28 it was 68.5 µM (inactive); with SK-MEL-5, 18.9 µM (inactive); in the assay on SR, 46.3 µM (inactive); with TK-10 it was 69.2 µM (inactive). Moreover, in the assay on U-251, the GI50 was 31 µM (inactive).
Regarding `Fc1cccc2nc(-c3ccccc3)cc(OCc3ccccc3)c12`, the GI50 in the assay with A549 is 83.4 µM (inactive); in the assay with ACHN, > 100 µM (inactive); in the assay with DU-145, > 100 µM (inactive); in the assay on HL-60, > 100 µM (inactive); in the assay with HOP-62, > 100 µM (inactive); in the assay on KM12, > 100 µM (inactive). The GI50 in the assay with LOX IMVI, with MDA-MB-231, in the assay on Malme-3M, in the assay with NCI-H226, in the assay on NCI/ADR-RES and with PC-3 was > 100 µM (inactive) in each case. Further, the GI50 with RXF 393 is 69.5 µM (inactive); with SF-295 it was > 100 µM (inactive); in the assay on SK-MEL-28 it was > 100 µM (inactive); with SK-MEL-5, 28.4 µM (inactive); in the assay with SR, > 100 µM (inactive); with TK-10 it was > 100 µM (inactive). Moreover, the GI50 in the assay with U-251 is > 100 µM (inactive).
For `COc1cc(-c2cc(=O)c3c(O)c(OC)c(OC)c(OC)c3o2)cc(OC)c1OC` [GARDENIN], the GI50 was 7.18 µM (inactive) in the assay with A549; 3.33 µM (inactive) in the assay with ACHN; > 100 µM (inactive) in the assay with DU-145; > 60 µM (inactive) in the assay on HL-60; 3.43 µM (inactive) with HOP-62; > 100 µM (inactive) in the assay with KM12. The GI50 in the assay with LOX IMVI is 6.31 µM (inactive); with MDA-MB-231, 2.91 µM (inactive); in the assay with Malme-3M, > 100 µM (inactive); in the assay on NCI-H226, 13.7 µM (inactive); in the assay on NCI/ADR-RES, 7.29 µM (inactive); in the assay with PC-3, > 100 µM (inactive). Moreover, the GI50 is 8.83 µM (inactive) with RXF 393; 8.47 µM (inactive) in the assay on SF-295; > 100 µM (inactive) in the assay with SK-MEL-28; 11 µM (inactive) in the assay on SK-MEL-5; > 100 µM (inactive) in the assay with SR; 6.92 µM (inactive) with TK-10. Besides, in the assay with U-251, the GI50 is 3.01 µM (inactive).
In the case of `CC(C)=CCc1c2c(c3occ(-c4ccc(O)c(O)c4)c(=O)c3c1O)C=CC(C)(C)O2` [POMIFERIN], the GI50 in the assay on A549 was 2.55 µM (inactive); in the assay on ACHN, 2.39 µM (inactive); in the assay with CAKI-1 it was 1.55 µM (inactive); in the assay on DU-145 it was 3.47 µM (inactive); in the assay with HOP-62, 1.89 µM (inactive); with KM12, 1.72 µM (inactive). Further, the GI50 in the assay with LOX IMVI was 2.19 µM (inactive); in the assay with MDA-MB-231, 1.39 µM (inactive); in the assay on Malme-3M it was 1.14 µM (inactive); in the assay on NCI-H226 it was 16.9 µM (inactive); in the assay with NCI/ADR-RES it was 2.18 µM (inactive); with PC-3, 1.61 µM (inactive). Further, the GI50 was 2.39 µM (inactive) in the assay with RXF 393; 3.77 µM (inactive) in the assay with SF-295; 2.51 µM (inactive) with SK-MEL-28; 2.96 µM (inactive) in the assay with SK-MEL-5; 0.204 µM (active) in the assay on SR; 1.6 µM (inactive) in the assay on TK-10. Moreover, the GI50 in the assay with U-251 is 1.48 µM (inactive).
